Each block holds one molecule with its values, some of them ahead of it.
Key:
15N-labelled EcDsbA = target: T1, 15N-labelled EcDsbA (Escherichia coli, UniProt P0AEG4); test: 2D 1H-15N HSQC chemical shift perturbation / titration; type: binding; settings: for Ligand Efficiency: LE = −RTln(KD)/HAC, 298 K; for fold decrease in binding affinity: relative to 25
T1 construct: made in house; protein recovered from the periplasm of the expressing cells
Description: Compounds that passed at least one ligand-detected NMR experiment were further validated by 2D ^1H-^15N heteronuclear single quantum coherence (HSQC) spectroscopy. In HSQC experiments, chemical shift perturbations (CSP) of backbone amide resonances of ^15N-labelled EcDsbA were measured upon addition of compound at 1 mM. […] In accordance with the crystal structure, the majority of the residues perturbed by 1 mM of benzofuran analogues in single-point HSQCs are located around the hydrophobic groove which is an important binding site for DsbA substrates (Figure 2A). […] Eight compounds produced large enough CSP (>0.04 ppm) to enable HSQC titration and KD determination.
For the 2D ^1H-^15N-HSQC titration experiment, 100 µM of ^15N-labelled EcDsbA in a buffer of 50 mM HEPES, pH 6.8, 50 mM NaCl, 2% ^2H6-DMSO, and 10% ^2H2O, was titrated with increasing concentrations of compounds ([…], 0.125, 0.25, 0.5, and 1 mM). Data were acquired on a Bruker 600 MHz spectrometer equipped with a 5 mm TXI CryoProbe and a Bruker 700 MHz spectrometer equipped with a 5 mm TXI CryoProbe. Data was processed by Topspin3.5 (Bruker) and analysed by Sparky (T. D. Goddard and D. G. Kneller, SPARKY 3, University of California, San Francisco (UCSF)). Weighted chemical shift perturbations (CSP) that were observed upon addition of compounds to EcDsbA were calculated using an Equation (1) in [41]: (1) CSP=ΔδH^2+(0.2×ΔδN)^2 where ΔδH and ΔδN denote the change in chemical shift of amide proton and nitrogen resonances upon addition of the compound. Equilibrium dissociation constants (KD) were determined by fitting the plot of CSP against compound concentrations using one site with ligand depletion model (Equation (2)): (2) CSP=CSPmax×[(KD+Pt+Lt)−((KD+Pt+Lt)^2−4×Pt×Lt)]/2×Pt where CSP is the measured CSP at a given concentration, CSPmax is the CSP observed at the saturating concentration of compound, and Pt and Lt are the total protein and compound concentrations. The ligand efficiency (LE) is calculated using the Equation (3) in [42]: (3) LE=−ΔG/HAC=−RTln(KD)/HAC where R is gas constant (1.9858775 cal K^−1 mol^−1), T is temperature (298 K), KD is equilibrium dissociation constant, and HAC is the number of heavy (non-hydrogen) atoms.

EcDsbA [1] = target: T2, EcDsbA (Escherichia coli, UniProt P0AEG4); test: waterLOGSY ligand-detected NMR binding; settings: compound 500 µM, unlabelled EcDsbA 10 µM, 298 K
T2 construct: made in house; protein recovered from the periplasm of the expressing cells
Source text: (§1) To validate the binding of benzofuran analogues, three ligand-detected NMR methods, saturation-transfer difference (STD), Carr–Purcell–Meiboom–Gill (CPMG), and water–ligand observed via gradient spectroscopy (waterLOGSY), were employed to detect protein-ligand binding between the benzofurans and EcDsbA (Figure 2C). These experiments were designed as a primary screening tool to select analogues to undergo further affinity evaluation and prioritise compounds for crystal soaking. […] In a good agreement with this finding, eight out of nine benzofurans that passed all three ligand-detected experiments have their co-crystal structures successfully solved; in contrast, five compounds that failed two ligand-detected experiments only have one co-structure solved (Table 2).
(§2) For ligand-detected NMR spectroscopy, two samples (compound alone and compound + protein) were prepared for each compound. Unlabelled EcDsbA was prepared at 10 µM in a buffer of 50 mM sodium phosphate, pH 6.8, 25 mM NaCl, 100 µM 4,4-dimethyl 4-silapentane-1-sulfonic acid (DSS), and 10% ^2H2O. Compound was added to the protein sample to achieve final concentration of 500 µM (2% ^2H6-DMSO). ^1H 1D spectrum was acquired for each compound at 500 µM as a reference spectrum. All ligand-detected NMR experiments (STD, CPMG, and waterLOGSY) were acquired at 298 K on a Bruker Avance III 600 MHz NMR spectrometer equipped with a 5 mm TXI CryoProbe (Bruker, Billerica, MA, USA). STD spectra were acquired with 3 s of saturation at 1 ppm (on-resonance) and 33.3 ppm (off-resonance). WaterLOGSY spectra were acquired for compound alone and compound + protein with a 0.52 s acquisition time, 3 s relaxation delay, and 3 s Nuclear Overhauser effect (NOE) mixing time. CPMG spectra for compound alone and compound + protein were acquired with a constant spin echo delay of 1 ms and spin-lock period of 350 ms. The data was analysed using Topspin3.5 (Bruker) and DSS was used to reference the spectra.

EcDsbA [2] = target: T2, EcDsbA; test: STD ligand-detected NMR binding; settings: compound 500 µM, unlabelled EcDsbA 10 µM, 298 K
Source text: as §1, §2

EcDsbA [3] = target: T2, EcDsbA; test: CPMG ligand-detected NMR binding; settings: compound 500 µM, unlabelled EcDsbA 10 µM, 298 K, spin-lock 350 ms
Source text: as §1, §2

EcDsbA [4] = target: T2, EcDsbA; test: Compound soaking into EcDsbA crystals and X-ray diffraction; type: binding; settings: crystals soaked with compound at 10 mM (5% DMSO) for 3–6 h
Source text: The synthesised analogues were soaked into crystals of EcDsbA and X-ray diffraction data was collected for each analogue in order to determine their site of binding. […] The carboxy moiety of 15 was oriented towards the left-hand side of the binding groove, where more polar residues are located. The phenyl ring of the aniline moiety occupied the hydrophobic end of the binding pocket with the nitrogen atom of the amine linker positioned in close proximity to Gln35. […] Although anisidine 16 was occupying a larger region of the EcDsbA binding groove, the shift appeared to have interrupted the π-stacking interactions the benzofuran was making with the His32 side chain previously (Figure 1B and Figure S1).
EcDsbA was crystallised as previously described. Briefly, 1 µL of 30 mg/mL EcDsbA was mixed with an equal volume of crystallisation buffer (11–13% PEG8000, 5–7.5% glycerol, 1 mM CuCl2, 100 mM, sodium cacodylate pH 6.1) and equilibrated against 500 µL of reservoir buffer at 20 °C using hanging drop vapour diffusion. For compound soaking, crystals were transferred into 2 µL drops of 24% PEG8000, 22% glycerol, and 100 mM sodium cacodylate (pH 6.1) containing a compound of interest at the final concentration of 10 mM (5% DMSO) and were incubated for 3–6 h. Crystals were mounted on loops and flash-cooled in liquid nitrogen.
Datasets were collected at the Australian synchrotron on MX1 and MX2 beamlines using the Blue-Ice software (Irvine, CA, USA). MX1 beamline was equipped with an ADSC Quantum 210r detector and MX2 with an ADSC Quantum 315r detector. All datasets were indexed and integrated with iMOSFLM [32] or XDS [33]—and scaled using AIMLESS [34, 35] or SCALA [36]. Phasing was performed by molecular replacement with Phaser using the previously solved structure of EcDsbA as a search model (PDB code 1FVK). The final structure was obtained after several rounds of manual model building using Coot and refinement in phenix.refine. Structures, factors and coordinates have been deposited in the Protein Data Bank (PDB; http://www.pdb.org) under the accession codes of 6PMF, 6POQ, 6POH, 6PML, 6PVY, 6POI, and 6PVZ.

T2 sequence (P0AEG4 20-208): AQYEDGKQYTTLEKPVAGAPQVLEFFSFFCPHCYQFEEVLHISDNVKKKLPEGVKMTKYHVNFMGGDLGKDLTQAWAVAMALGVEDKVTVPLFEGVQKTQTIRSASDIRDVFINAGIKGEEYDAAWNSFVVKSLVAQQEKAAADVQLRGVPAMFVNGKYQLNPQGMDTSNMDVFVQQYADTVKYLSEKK
T1 sequence (P0AEG4 20-208): as above

Structure (SMILES): COc1cccc(Oc2ccc3c(CC(=O)O)coc3c2)c1 [compound 26, 2-(6-(3-Methoxyphenoxy)benzofuran-3-yl)acetic acid]
Kd (15N-labelled EcDsbA): 639 ± 87 µM | Ligand Efficiency (15N-labelled EcDsbA): 0.20 kcal mol^−1 HAC^−1 | fold decrease in binding affinity (15N-labelled EcDsbA): 2 fold | wLOGSY (EcDsbA [1]): Pass | STD (EcDsbA [2]): Pass | CPMG (EcDsbA [3]): Pass

Structure (SMILES): O=C(O)Cc1c[nH]c2cc(-c3ccccc3)ccc12 [compound 36, 2-(6-Phenyl-1H-indol-3-yl)acetic acid]
wLOGSY (EcDsbA [1]): Pass | STD (EcDsbA [2]): Pass | CPMG (EcDsbA [3]): Pass | Crystal Structure in EcDsbA (EcDsbA [4]): lack of electron density and No

Structure (SMILES): O=C(O)Cc1c[nH]c2cc(Br)ccc12 [compound 34, 2-(6-Bromo-1H-indol-3-yl)acetic acid]
Crystal Structure in EcDsbA (EcDsbA [4]): lack of electron density

Structure (SMILES): O=C(O)Cc1coc2cc(Br)ccc12 [compound 6, 2-(6-Bromobenzofufran-3-yl)acetic acid]
affinity to EcDsbA (15N-labelled EcDsbA; fragment hit from biophysical screening): high mM affinity

Structure (SMILES): CS(=O)(=O)NC(C(=O)O)c1coc2cc(Br)ccc12 (stereo not drawn) [compound 50, 2-(6-Bromobenzofuran-3-yl)-2-(methylsulfonamido)acetic acid]
melting point: 140 to 142 °C | wLOGSY (EcDsbA [1]): Pass | STD (EcDsbA [2]): Pass | CPMG (EcDsbA [3]): Pass | Crystal Structure in EcDsbA (EcDsbA [4]): Yes

Structure (SMILES): COc1ccc(CC(=O)NC(C(=O)O)c2coc3cc(Br)ccc23)cc1 (stereo not drawn) [compound 48, 2-(6-Bromobenzofuran-3-yl)-2-(2-(4-methoxyphenyl)acetamido)acetic acid]
Kd (15N-labelled EcDsbA): 1350 ± 420 µM | Ligand Efficiency (15N-labelled EcDsbA): 0.15 kcal mol^−1 HAC^−1 | melting point: 159 to 161 °C | wLOGSY (EcDsbA [1]): Pass | STD (EcDsbA [2]): Fail | CPMG (EcDsbA [3]): Fail | Crystal Structure in EcDsbA (EcDsbA [4]): No

Structure (SMILES): O=C(O)Cc1coc2cc(Cc3ccccc3)ccc12 [compound 28, 2-(6-Benzylbenzofuran-3-yl)acetic acid]
Kd (15N-labelled EcDsbA): 341 ± 47 µM | Ligand Efficiency (15N-labelled EcDsbA): 0.24 kcal mol^−1 HAC^−1 | melting point: 124 to 127 °C | wLOGSY (EcDsbA [1]): Pass | STD (EcDsbA [2]): Pass | CPMG (EcDsbA [3]): Pass | Crystal Structure in EcDsbA (EcDsbA [4]): Yes

melting point: 179 to 182 °C
Structure (SMILES): O=C(O)C(NS(=O)(=O)c1ccccc1)c1coc2cc(Br)ccc12 (stereo not drawn)

Structure (SMILES): COc1ccc(Nc2ccc3c(CC(=O)O)coc3c2)cc1 [compound 16, 2-(6-((4-Methoxyphenyl)amino)benzofuran-3-yl)acetic acid]
Kd (15N-labelled EcDsbA): 2700 ± 920 µM | Ligand Efficiency (15N-labelled EcDsbA): 0.16 kcal mol^−1 HAC^−1 | melting point: 120 to 122 °C | wLOGSY (EcDsbA [1]): Pass | STD (EcDsbA [2]): Fail | CPMG (EcDsbA [3]): Pass | Crystal Structure in EcDsbA (EcDsbA [4]): Yes

Structure (SMILES): Brc1ccc2c(Cc3nnn[nH]3)coc2c1 [compound 31, 5-((6-Bromobenzofuran-3-yl)methyl)-1H-tetrazole]
wLOGSY (EcDsbA [1]): Pass | STD (EcDsbA [2]): Pass | CPMG (EcDsbA [3]): Pass | Crystal Structure in EcDsbA (EcDsbA [4]): did not produce electron density and No

Structure (SMILES): O=C(NC(C(=O)O)c1coc2cc(Br)ccc12)c1ccccc1 (stereo not drawn) [compound 47, 2-Benzamido-2-(6-bromobenzofuran-3-yl)-2-acetic acid]
melting point: 209 to 212 °C | wLOGSY (EcDsbA [1]): Pass | STD (EcDsbA [2]): Fail | CPMG (EcDsbA [3]): Fail | Crystal Structure in EcDsbA (EcDsbA [4]): No

Structure (SMILES): O=C(O)Cc1coc2ccc(OCc3ccccc3)cc12 [compound 24, 2-(5-(Benzyloxy)benzofuran-3-yl)acetic acid]
melting point: 147 to 149 °C | Crystal Structure in EcDsbA (EcDsbA [4]): did not show clear enough electron density

Structure (SMILES): CC(=O)NC(C(=O)O)c1coc2cc(Br)ccc12 (stereo not drawn) [compound 46, 2-Acetamido-2-(6-bromobenzofuran-3-yl)acetic acid]
melting point: 194 to 196 °C | wLOGSY (EcDsbA [1]): Pass | STD (EcDsbA [2]): Fail | CPMG (EcDsbA [3]): Fail | Crystal Structure in EcDsbA (EcDsbA [4]): No

Structure (SMILES): O=C(O)Cc1coc2cc(Oc3ccccc3)ccc12 [compound 25, 2-(6-Phenoxybenzofuran-3-yl)acetic acid]
Kd (15N-labelled EcDsbA): 326 ± 25 µM | Ligand Efficiency (15N-labelled EcDsbA): 0.24 kcal mol^−1 HAC^−1 | wLOGSY (EcDsbA [1]): Pass | STD (EcDsbA [2]): Pass | CPMG (EcDsbA [3]): Pass | Crystal Structure in EcDsbA (EcDsbA [4]): Yes

Structure (SMILES): CCCCOc1ccc2c(CC(=O)O)coc2c1 [compound 21, 2-(6-Butoxybenzofuran-3-yl)acetic acid]
Kd (15N-labelled EcDsbA): 1970 ± 640 µM | Ligand Efficiency (15N-labelled EcDsbA): 0.20 kcal mol^−1 HAC^−1 | fold decrease in binding affinity (15N-labelled EcDsbA): six-fold decrease | melting point: 108 to 109 °C | wLOGSY (EcDsbA [1]): Pass | STD (EcDsbA [2]): Pass | CPMG (EcDsbA [3]): Pass | Crystal Structure in EcDsbA (EcDsbA [4]): Yes

Structure (SMILES): O=C(O)Cc1coc2cc(OCc3ccccc3)ccc12 [compound 23]
Kd (15N-labelled EcDsbA): 820 ± 140 µM | Ligand Efficiency (15N-labelled EcDsbA): 0.20 kcal mol^−1 HAC^−1 | melting point: 153 to 155 °C | wLOGSY (EcDsbA [1]): Pass | STD (EcDsbA [2]): Pass | CPMG (EcDsbA [3]): Pass | Crystal Structure in EcDsbA (EcDsbA [4]): Yes

Structure (SMILES): CC(C)COc1ccc2c(CC(=O)O)coc2c1 [compound 22, 2-(6-Isobutoxybenzofuran-3-yl)acetic acid]
chemical shift perturbations (CSP) of hydrophobic groove residues (15N-labelled EcDsbA; single-point HSQC, compound at 1 mM): too small to determine KD | wLOGSY (EcDsbA [1]): Fail | STD (EcDsbA [2]): Fail | CPMG (EcDsbA [3]): Pass | Crystal Structure in EcDsbA (EcDsbA [4]): Yes

— publication PMC6832960, “The Fragment-Based Development of a Benzofuran Hit as a New Class of Escherichia coli DsbA Inhibitors” (Molecules, 2019)
